According to patent US20260070902A1, “SULFONYL DERIVATIVES AS CCR6 INHIBITORS” (Hoffmann-La Roche Inc., priority 2022, published 2026):

What was measured:
Format in all cases: cell-based
[1] = tested on: Human CD4+ T cells; assay: CD4+ T cells chemotaxis assay towards CCL20; conditions: 3 h; for CD4+ T-cell chemotaxis: relative -Log IC50, human CD4+ T cells stimulated with anti-CD3 and anti-CD28, migration towards 150 ng/ml CCL20; for IC50: Homo sapiens, CD4+ T cell, relative -Log IC50, human CD4+ T cells stimulated with anti-CD3 and anti-CD28, migration towards 150 ng/ml CCL20
Description: CD4+ T Cells Chemotaxis Assay Towards CCL20
Human CD4+ T cells were isolated from buffy coats of healthy donors using a CD4+ T Cell Isolation Kit (Miltenyi Biotec130-096-533). Isolated T cells were stimulated overnight with anti-CD3 and anti-CD28 antibodies (Biolegend 300314/302934) in growth medium (RPMI1640, 10% heat-inactivated FBS, 1× pen/strep (Gibco 15140)). For the chemotaxis assay, Corning Transwell plates were used with a pore size of 5 m (Corning 3388). T cells were counted and diluted to 6*10^6 cells/ml in chemotaxis medium (RPMI1640, 1% BSA, pen/strep). Compounds were four-fold serially diluted in DMSO. Further dilutions were made in chemotaxis medium. Cells were incubated with test compounds for 30 min at 37° C. prior to initiation of the assay (3*10^6 cells/ml). Final DMSO concentration in the assay was 0.2%. Wells of the Transwell plates were filled with 200 μl chemotaxis medium containing 150 ng/ml CCL20 (R&D systems 360-MP). 50 μl of the cell/compound suspension was added to the inserts of the Transwell plates (150,000 cells/insert). The Transwell plates were placed in an incubator at 37° C., 5% CO2 for 3 h. After 3 h, the number of migrated cells was quantified using CellTiter Glo (Promega). Percentage inhibition values were calculated based on the low and high signal obtained with 0.2% DMSO in chemotaxis medium without and with CCL20, respectively. The relative −Log IC50 was determined with GraphPad Prism 9 using a four-parameter dose-response model.

[2] = target: T1, human CCR6 (Homo sapiens, UniProt P51684); assay: Human CCR6-CRE reporter assay; design: The second construct contained the open reading frame of human CCR6 in the pUNO1 backbone; host or cells: 293FT cells; conditions: relative -Log IC50; 293FT cells transfected with human CCR6 and CRE-luciferase reporter; 6 μM Forskolin, 6 nM CCL20; 5 h
T1 sequence (P51684 1-374): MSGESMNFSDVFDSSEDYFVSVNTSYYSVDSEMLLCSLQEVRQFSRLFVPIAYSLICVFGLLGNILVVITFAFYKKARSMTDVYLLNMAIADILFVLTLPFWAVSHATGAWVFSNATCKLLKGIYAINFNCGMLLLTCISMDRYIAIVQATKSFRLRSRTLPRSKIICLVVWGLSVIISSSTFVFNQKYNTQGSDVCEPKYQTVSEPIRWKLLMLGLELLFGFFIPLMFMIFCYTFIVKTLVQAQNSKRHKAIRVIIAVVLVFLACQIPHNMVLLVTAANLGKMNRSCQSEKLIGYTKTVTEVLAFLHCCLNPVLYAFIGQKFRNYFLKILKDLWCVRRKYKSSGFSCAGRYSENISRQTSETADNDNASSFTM
Method in brief: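 293FT cells transiently co-transfected with human CCR6 and a CRE-luc2P reporter, used 48 h later. Compounds incubated with cells in medium containing 6 μM Forskolin and 6 nM CCL20 (assay-medium levels), 0.1% DMSO final, 5 h at 37° C; luminescence read, relative −Log IC50 from four-parameter fit.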

[3] = target: T1, human CCR6; assay: CHO-K1 CCR6 chemotaxis assay towards CCL20; conditions: relative -Log IC50; CHO-K1 cells overexpressing human CCR6; migration towards 100 ng/ml CCL20; 4 h
Method in brief: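 Human CCR6-overexpressing CHO-K1 cells (2*10^6 cells/ml) were preincubated 30 min at 37 °C with compound (0.2% DMSO), then allowed to migrate 4 h through 8 µm Transwell pores toward 100 ng/ml CCL20. Migrated cells were counted by CellTiter Glo. −Log IC50 came from four-parameter fits normalised to DMSO without/with CCL20.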

Row | SMILES | CD4+ T-cell chemotaxis [1] | IC50 [2] | IC50 [1] | IC50 [3]
1 | N=S(=O)(c1ccc(-c2ccnc(C(N)=O)c2)cc1)[C@H]1CC[C@H](Nc2ccc(S(F)(F)(F)(F)F)cc2)CC1 (single isomer, unassigned; (+)) [Example 130, (+)-4-(4-{[trans-4-{[4-(pentafluoro-λ^6-sulfanyl)phenyl]Amino}cyclohexyl]sulfonimidoyl}phenyl)pyridine-2-carboxamide] | 7.3 | 200 nM | – | –
2 | CC(C)c1nnc2ccc(-c3ccc(S(=N)(=O)[C@H]4CC[C@H](Nc5ccc(S(F)(F)(F)(F)F)cc5)CC4)cc3)cn12 (single isomer, unassigned; (+)) [Example 163, (+)-{4-[3-(propan-2-yl)-[1,2,4]triazolo[4,3-a]pyridin-6-yl]phenyl}[trans-4-{[4-(pentafluoro-λ^6-sulfanyl)phenyl]amino}cyclohexyl](imino)-λ^6-sulfanone] | 7.8 | 79.4 nM | – | –
3 | N=S(=O)(c1ccc(-c2ccnc(C(N)=O)c2)cc1)[C@H]1CC[C@H](Nc2ccc(S(F)(F)(F)(F)F)cc2)CC1 (single isomer, unassigned; (-)) [Example 131, (−)-4-(4-{[trans-4-{[4-(pentafluoro-λ^6-sulfanyl)phenyl]Amino}cyclohexyl]sulfonimidoyl}phenyl)pyridine-2-carboxamide] | 6.6 | 316 nM | – | –
4 | CC(C)c1nnc2ccc(-c3ccc(S(=N)(=O)[C@H]4CC[C@H](Nc5ccc(S(F)(F)(F)(F)F)cc5)CC4)cc3)cn12 (single isomer, unassigned; (-)) [Example 164, (−)-{4-[3-(propan-2-yl)-[1,2,4]triazolo[4,3-a]pyridin-6-yl]phenyl}[trans-4-{[4-(pentafluoro-λ^6-sulfanyl)phenyl]amino}cyclohexyl](imino)-λ^6-sulfanone] | 6.7 | 126 nM | – | –
5 | Cc1[nH]nc2ccc(-c3ccc(S(=O)(=O)N4CCC(Nc5ccc(S(F)(F)(F)(F)F)cc5)CC4)cc3)cc12 [Example 2, 1-[4-(3-methyl-2H-indazol-5-yl)benzenesulfonyl]-N-[4-(pentafluoro-λ^6-sulfanyl)phenyl]piperidin-4-amine] | – | 63.1 nM | 5.01 nM | –
6 | N#Cc1c[nH]c2ccc(-c3ccc(S(=O)(=O)N4CCC(Nc5ccc(S(F)(F)(F)(F)F)cc5)CC4)cc3)cc12 [Example 3, 5-{4-[(4-{[4-(pentafluoro-λ^6-sulfanyl)phenyl]Amino}piperidin-1-yl)sulfonyl]phenyl}-1H-indole-3-carbonitrile] | – | 50.1 nM | 15.8 nM | –
7 | N#Cc1n[nH]c2ccc(-c3ccc(S(=O)(=O)N4CCC(Nc5ccc(S(F)(F)(F)(F)F)cc5)CC4)cc3)cc12 [Example 4, 5-{4-[(4-{[4-(pentafluoro-λ^6-sulfanyl)phenyl]Amino}piperidin-1-yl)sulfonyl]phenyl}-1H-indazole-3-carbonitrile] | – | 50.1 nM | 0.794 nM | –
8 | N#Cc1c[nH]c2ccc(-c3ccc(S(=O)(=O)[C@H]4CC[C@H](Nc5ccc(S(F)(F)(F)(F)F)cc5)CC4)cc3)cc12 [Example 7, 5-(4-{[trans-4-{[4-(pentafluoro-λ^6-sulfanyl)phenyl]Amino}cyclohexyl]sulfonyl}phenyl)-1H-indole-3-carbonitrile] | – | 39.8 nM | 0.501 nM | –
9 | O=C1NCc2ccc(-c3ccc(S(=O)(=O)[C@H]4CC[C@H](Nc5ccc(S(F)(F)(F)(F)F)cc5)CC4)cc3)cc21 [Example 9, 6-(4-{[trans-4-{[4-(pentafluoro-λ^6-sulfanyl)phenyl]Amino}cyclohexyl]sulfonyl}phenyl)-2,3-dihydro-1H-isoindol-1-one] | – | 79.4 nM | 10 nM | –
10 | O=S(=O)(c1ccc(-c2ccc3nccn3c2)cc1)[C@H]1CC[C@H](Nc2ccc(S(F)(F)(F)(F)F)cc2)CC1 [Example 12, 4-(pentafluoro-λ^6-sulfanyl)-N-[trans-4-(4-{imidazo[1,2-a]pyridin-6-yl}benzenesulfonyl)cyclohexyl]aniline] | – | 79.4 nM | 15.8 nM | –
11 | N#Cc1cnc2ccc(-c3ccc(S(=O)(=O)N4CCC(Nc5ccc(S(F)(F)(F)(F)F)cc5)CC4)cc3)cn12 [Example 25, 6-{4-[(4-{[4-(pentafluoro-λ^6-sulfanyl)phenyl]Amino}piperidin-1-yl)sulfonyl]phenyl}imidazo[1,2-a]pyridine-3-carbonitrile] | – | 39.8 nM | 5.01 nM | –
12 | O=c1[nH]nc2ccc(-c3ccc(S(=O)(=O)N4CCC(Nc5ccc(S(F)(F)(F)(F)F)cc5)CC4)cc3)cn12 [Example 32, 6-{4-[(4-{[4-(pentafluoro-λ^6-sulfanyl)phenyl]Amino}piperidin-1-yl)sulfonyl]phenyl}-2H,3H-[1,2,4]triazolo[4,3-a]pyridin-3-one] | – | 100 nM | 3.98 nM | –
13 | N#Cc1n[nH]c2ccc(-c3ccc(S(=O)(=O)[C@H]4CC[C@H](Nc5ccc(S(F)(F)(F)(F)F)cc5)CC4)cc3)cc12 [Example 38, 5-(4-{[trans-4-{[4-(pentafluoro-λ^6-sulfanyl)phenyl]Amino}cyclohexyl]sulfonyl}phenyl)-1H-indazole-3-carbonitrile] | – | 39.8 nM | 0.631 nM | –
14 | Cc1nc2ccc(-c3ccc(S(=O)(=O)[C@H]4CC[C@H](Nc5ccc(S(F)(F)(F)(F)F)cc5)CC4)cc3)cn2n1 [Example 40, 4-(pentafluoro-λ^6-sulfanyl)-N-[trans-4-(4-{2-methyl-[1,2,4]triazolo[1,5-a]pyridin-6-yl}benzenesulfonyl)cyclohexyl]aniline] | – | 100 nM | 10 nM | –
15 | O=S(=O)(c1ccc(-c2ccc(O)nc2)cc1)[C@H]1CC[C@H](Nc2ccc(S(F)(F)(F)(F)F)cc2)CC1 [Example 56, 5-(4-{[trans-4-{[4-(pentafluoro-λ^6-sulfanyl)phenyl]Amino}cyclohexyl]sulfonyl}phenyl)pyridin-2-ol] | – | 63.1 nM | 15.8 nM | –
16 | O=S(=O)(c1ccc(-c2ccc3nccn3c2)nc1)N1CCC(Nc2ccc(S(F)(F)(F)(F)F)cc2)CC1 [Example 77, 1-[(6-{imidazo[1,2-a]pyridin-6-yl}pyridin-3-yl)sulfonyl]-N-[4-(pentafluoro-λ^6-sulfanyl)phenyl]piperidin-4-amine] | – | 501 nM | 126 nM | –
17 | N#Cc1cnc2ccc(-c3ccc(S(=O)(=O)N4CCC(Nc5cccc(S(F)(F)(F)(F)F)c5)CC4)cc3)cn12 [Example 81, 6-{4-[(4-{[3-(pentafluoro-λ^6-sulfanyl)phenyl]Amino}piperidin-1-yl)sulfonyl]phenyl}imidazo[1,2-a]pyridine-3-carbonitrile] | – | 126 nM | 158 nM | –
18 | O=S(=O)(c1ccc(-c2ccc3nccn3c2)cc1)N1CCC(Nc2cccc(S(F)(F)(F)(F)F)c2)CC1 [Example 82, 1-(4-{imidazo[1,2-a]pyridin-6-yl}benzenesulfonyl)-N-[3-(pentafluoro-λ^6-sulfanyl)phenyl]piperidin-4-amine] | – | 200 nM | 316 nM | –
19 | N=S(=O)(c1ccc(-c2ccc3nnc(C(F)F)n3c2)cc1)[C@H]1CC[C@H](Nc2ccc(S(F)(F)(F)(F)F)cc2)CC1 (stereo partly drawn) [Example 169, {4-[3-(difluoromethyl)-[1,2,4]triazolo[4,3-a]pyridin-6-yl]phenyl}[trans-4-{[4-(pentafluoro-λ^6-sulfanyl)phenyl]amino}cyclohexyl](imino)-λ^6-sulfanone] | – | 316 nM | – | 79.4 nM
